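Growth conditions: 96-well plates. Treatment: test compound, 48 hours, 5 concentrations. Analysis: linear interpolation between bracketing concentrations; unreached endpoints set to highest concentration. Here, GI50 denotes the concentration required for 50% inhibition of growth. At the TGI there is no net growth.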
Columns and labels:
Test in all cases: growth of human tumour cells (NCI), 48 h
HCC-2998 colon = system: HCC-2998 colon
M14 melanoma = system: M14 melanoma
MCF7 breast = system: MCF7 breast
COLO 205 colon = system: COLO 205 colon
LOX IMVI melanoma = system: LOX IMVI melanoma
MOLT-4 leukemia = system: MOLT-4 leukemia
NCI-H460 lung = system: NCI-H460 lung
RXF 393 renal = system: RXF 393 renal
HOP-92 NSCLC = system: HOP-92 NSCLC
OVCAR-3 ovarian = system: OVCAR-3 ovarian

Row | SMILES | GI50 (HCC-2998 colon) [µM] | TGI (HCC-2998 colon) [µM] | GI50 (M14 melanoma) [µM] | TGI (M14 melanoma) [µM] | GI50 (MCF7 breast) [µM] | TGI (MCF7 breast) [µM] | GI50 (COLO 205 colon) [µM] | TGI (COLO 205 colon) [µM] | GI50 (LOX IMVI melanoma) [µM] | TGI (LOX IMVI melanoma) [µM] | GI50 (MOLT-4 leukemia) [µM] | TGI (MOLT-4 leukemia) [µM] | GI50 (NCI-H460 lung) [µM] | TGI (NCI-H460 lung) [µM] | GI50 (RXF 393 renal) [µM] | TGI (RXF 393 renal) [µM] | GI50 (HOP-92 NSCLC) [µM] | TGI (HOP-92 NSCLC) [µM] | GI50 (OVCAR-3 ovarian) [µM] | TGI (OVCAR-3 ovarian) [µM]
1 | NC(=O)c1ccc(I)c([N+](=O)[O-])c1 | 50.4 | > 100 | > 86 | > 100 | > 80.5 | > 100 | > 100 | > 100 | 44.5 | > 100 | > 71.2 | > 100 | > 100 | > 100 | > 84.8 | > 100 | > 70.6 | > 100 | 55 | > 100
2 | Cc1cccc2c(=O)c3c(sc12)c(NCCCN)nc1ccccc13 | 1.67 | 3.39 | 1.58 | 3.13 | 1.11 | 2.57 | 1.56 | 3.23 | 1.46 | 2.98 | 1.35 | 3.06 | 0.825 | 2.25 | 1.48 | 2.87 | 1.53 | 5.12 | 1.68 | 3.16
3 | Oc1cccc2ccc(SSc3ccc4cccc(O)c4n3)nc12 | – | 21.3 | – | 33.3 | – | 18.9 | – | 35.2 | – | 33.8 | – | > 100 | – | 42.6 | – | 30.8 | – | 55.9 | – | 34.7
4 | COc1cc(/C=C/C(=O)c2ccccc2O)ccc1OCCCOc1cc2c(cc1OC)C(=O)N1CCC[C@H]1C=N2 | 0.138 | 0.433 | 0.0401 | 0.172 | 0.0426 | > 36.9 | 0.0348 | 0.144 | 0.0204 | 0.0489 | 0.017 | 0.0572 | 0.0511 | 11.1 | – | – | 0.0499 | 0.99 | 0.0289 | 0.124
5 | COC(=O)[C@@H](C)C[C@H](Cc1ccc(F)cc1)NC(=O)c1csc([C@@H](C[C@H](C(C)C)N(C)C(=O)[C@@H](NC(=O)[C@H]2CCCCN2C)C2CC2)OC(C)=O)n1 | 2.48 | > 25 | 0.157 | > 5.99 | 0.0587 | > 25 | 0.184 | 1.47 | 0.272 | > 25 | 0.338 | > 25 | 0.255 | > 25 | – | – | 0.917 | > 12.8 | 0.0723 | 0.633
6 | O=C1NN(C(=O)c2ccccc2)C(c2ccc(Cl)c(Cl)c2)=C/C1=C\c1ccccc1[N+](=O)[O-] | 1.81 | 5.48 | 1.9 | > 6.75 | 1.82 | > 6.75 | 1.52 | 3.49 | 1.14 | 3.49 | 2.04 | > 6.75 | 1.78 | 5.2 | 1.67 | 5.35 | 1.43 | > 6.75 | 2.4 | > 6.75
7 | CCCCNC(=O)Oc1ccc(/C(=C(\C)c2ccc(OC)cc2)c2ccc(OCCN3CCCCC3)cc2)cc1 | 3.31 | 11.5 | 1.7 | 3.23 | 0.0721 | 3.99 | 2.07 | 4.63 | 1.83 | 3.44 | 3.12 | 71.9 | 1.94 | 3.86 | 2.09 | 4.3 | 1.57 | 3.71 | 2.09 | 4.51
8 | CCC(CO)Nc1nc(NCc2ccccc2)c2n[nH]c(C(C)C)c2n1 (centres undefined) | 12.6 | 26 | 6.21 | 20.2 | 5.92 | 25.9 | 4.45 | 17.1 | 7.55 | 20.9 | 11.1 | 46.3 | 4.94 | 19.4 | 5.89 | 21 | 3.75 | 19.5 | 7.32 | 22.7
9 | C/C(=N\N)C(CN1CCOCC1)C(c1ccccc1)c1c(O)c2ccccc2oc1=O (centres undefined) | – | > 100 | – | > 100 | – | > 100 | – | > 63.5 | – | > 31.6 | – | > 80.8 | – | > 100 | – | > 51.9 | – | > 100 | – | > 100
10 | C/C(COc1ccc2oc(-c3ccccc3)cc(=O)c2c1)=N\O | 19.5 | > 100 | 15.3 | 46.3 | 10.1 | 36.7 | 11.8 | 52.9 | 1.38 | 3.34 | 89.2 | > 100 | 14.3 | > 100 | > 100 | > 100 | 37.4 | > 100 | 7.39 | 54.2
11 | Cc1ccc(S(=O)(=O)NC(Cc2ccccc2)C(=O)CCl)cc1 (centres undefined) | – | 26.9 | – | 26.2 | – | 24.5 | – | 32.3 | – | 20.1 | – | – | – | 29.3 | – | 6.33 | – | 26.8 | – | 29.2
12 | O=C1CC=C2C3CC4N(CCC45c4ccccc4N1C25)C/C3=C\CO (centres undefined) | – | > 100 | – | – | – | > 100 | – | > 100 | – | > 100 | – | > 100 | – | > 100 | – | – | – | > 100 | – | > 100
13 | N[C@@H](Cc1c[nH]c2ccccc12)C(=O)NC1CCN(Cc2c[nH]c3ccc(Cl)cc23)CC1 | 3.3 | 13.4 | 6.4 | 19.5 | 5.63 | 20.9 | 2.11 | 4.65 | 2.77 | 8.95 | 2.79 | 9.6 | 4.71 | 16 | – | – | 3.86 | 17.2 | 10.5 | 22.5
14 | COc1ccc2c(c1)/C(=C\c1c(-c3ccccc3)nc3sccn13)C(=O)N2 | – | – | 7.11 | 18.4 | > 100 | > 100 | 18.7 | 45.8 | 6.09 | 22.2 | 12.5 | > 44.5 | 7.08 | > 24.4 | 2.69 | 21.4 | > 100 | > 100 | 0.122 | 0.444

Reference: PubChem BioAssay (NCI)
